Source: ChEMBL document CHEMBL6127050, “Simultaneous inhibition of FLT3 and HDAC by novel 6-ethylpyrazine-2-Carboxamide derivatives provides therapeutic advantages in acute myelocytic leukemia” (Eur J Med Chem, 2024)
pIC50: −log10 of the molar value. Activity calls are given as the source filed them. The rule behind the calls is not given here.

What was measured:
Histone deacetylase = assay: Inhibition of HDAC in human HeLa nuclear extract using Boc-Lys(Ac)-AMC as substrate incubated for 0.5 hrs by microplate reader analysis; assay type: cell-based
[1] = biological target: T1, Receptor-type tyrosine-protein kinase FLT3 (Homo sapiens, UniProt P36888); assay: Inhibition of FLT3 (unknown origin) incubated for 40 mins in presence of ATP by kinase-glo plus luminescence assay
T1 sequence (P36888 whole entry): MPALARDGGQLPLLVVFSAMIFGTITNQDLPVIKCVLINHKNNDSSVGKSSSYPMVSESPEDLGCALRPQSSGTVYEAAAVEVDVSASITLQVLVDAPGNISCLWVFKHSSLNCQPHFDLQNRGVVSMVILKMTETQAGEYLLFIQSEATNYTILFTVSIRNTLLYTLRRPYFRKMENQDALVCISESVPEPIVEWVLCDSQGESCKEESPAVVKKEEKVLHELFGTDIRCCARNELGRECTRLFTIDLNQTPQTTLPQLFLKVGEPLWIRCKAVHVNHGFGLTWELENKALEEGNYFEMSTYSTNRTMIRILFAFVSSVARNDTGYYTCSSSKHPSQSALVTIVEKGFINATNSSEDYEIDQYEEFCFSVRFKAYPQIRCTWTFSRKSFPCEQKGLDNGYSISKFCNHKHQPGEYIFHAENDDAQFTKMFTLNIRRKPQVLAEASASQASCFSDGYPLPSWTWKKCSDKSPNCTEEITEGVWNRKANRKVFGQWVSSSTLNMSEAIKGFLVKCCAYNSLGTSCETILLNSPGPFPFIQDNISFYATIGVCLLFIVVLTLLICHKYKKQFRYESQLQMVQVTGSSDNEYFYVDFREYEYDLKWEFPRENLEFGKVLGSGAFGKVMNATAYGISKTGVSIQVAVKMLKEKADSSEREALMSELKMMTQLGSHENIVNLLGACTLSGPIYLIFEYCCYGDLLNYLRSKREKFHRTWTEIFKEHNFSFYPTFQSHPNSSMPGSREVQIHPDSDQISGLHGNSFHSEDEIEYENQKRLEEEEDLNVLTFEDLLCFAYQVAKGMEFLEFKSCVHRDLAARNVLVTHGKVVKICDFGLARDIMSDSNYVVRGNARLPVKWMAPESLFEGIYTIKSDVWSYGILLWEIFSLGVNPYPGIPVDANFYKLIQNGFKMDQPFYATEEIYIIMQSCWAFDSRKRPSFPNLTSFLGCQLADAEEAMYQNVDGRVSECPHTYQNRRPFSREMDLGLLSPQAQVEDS

MOLM-13 [2] = assay: Antiproliferative activity against human MOLM-13 cells incubated for 48 hrs; settings: MOLM-13, 48 h
KG-1 = assay: Antiproliferative activity against human KG-1 cells incubated for 48 hrs; settings: KG-1, 48 h
THP-1 = assay: Antiproliferative activity against human THP-1 cells incubated for 48 hrs; settings: THP-1, 48 h
K562 = assay: Antiproliferative activity against human K562 cells incubated for 48 hrs; settings: K562, 48 h
[3] = Cytotoxicity against HEK293T cells incubated for 48 hrs; assay type: toxicity, cell-based, HEK-293T; settings: human
[4] = biological target: Receptor-type tyrosine-protein kinase FLT3 (Homo sapiens) (UniProt P36888); assay: Inhibition of FLT3 phosphorylation in human MOLM-13 cells at 0.001 to 0.1 microM by Western blot analysis; assay type: cell-based; settings: dose 0.001-0.1 µM
MOLM-13 [5] = assay: Inhibition of STAT5 phosphorylation in human MOLM-13 cells at 0.01 to 0.1 microM by Western blot analysis; assay type: cell-based; settings: dose 0.01-0.1 µM
MOLM-13 [6] = assay: Inhibition of ERK1/2 phosphorylation in human MOLM-13 cells at 0.01 to 0.1 microM by Western blot analysis; assay type: cell-based; settings: dose 0.01-0.1 µM
MOLM-13 [7] = assay: Inhibition of ERK1/2 phosphorylation in human MOLM-13 cells at 0.1 microM by Western blot analysis; assay type: cell-based
MOLM-13 [8] = assay: Induction of apoptosis in human MOLM-13 cells assessed as viable cells at 0.1 uM incubated for 48 hrs by Annexin V-FITC staining based flow cytometry analysis (reference value: 94.5 %); assay type: functional; settings: Homo sapiens, MOLM-13, read-out: Activity
MOLM-13 [9] = assay: Induction of apoptosis in human MOLM-13 cells assessed as early apoptotic cells at 0.1 uM incubated for 48 hrs by Annexin V-FITC staining based flow cytometry analysis (reference value: 4.07 %); assay type: functional
MOLM-13 [10] = assay: Induction of apoptosis in human MOLM-13 cells assessed as late apoptotic cells at 0.1 uM incubated for 48 hrs by Annexin V-FITC staining based flow cytometry analysis (reference value: 1.40 %); assay type: functional
MOLM-13 [11] = assay: Induction of apoptosis in human MOLM-13 cells assessed as necrotic at 0.1 uM incubated for 48 hrs by Annexin V-FITC staining based flow cytometry analysis (reference value: 0.013 %); assay type: functional
MOLM-13 [12] = assay: Induction of apoptosis in human MOLM-13 cells assessed as caspase-3 activation; assay type: functional, cell-based; settings: dose 0.1 µM
Mitochondrial membrane = assay: Induction of mitochondrial membrane potential depolarization in human MOLM-13 cells; assay type: cell membranes; settings: dose 0.1 µM
MOLM-13 [13] = assay: Induction of cell cycle arrest in human MOLM-13 cells assessed as accumulation of cells at G0/G1 phase at 0.05 uM measured for 48 hrs by PI/RNase staining based flow cytometric analysis (reference value: 46.24 %); assay type: functional
MOLM-13 [14] = assay: Induction of cell cycle arrest in human MOLM-13 cells assessed as accumulation of cells at G2M phase at 0.05 uM measured for 48 hrs by PI/RNase staining based flow cytometric analysis (reference value: 10.81%); assay type: functional
MOLM-13 [15] = assay: Induction of cell cycle arrest in human MOLM-13 cells assessed as accumulation of cells at S-phase at 0.05 uM measured for 48 hrs by PI/RNase staining based flow cytometric analysis (reference value: 42.95%); assay type: functional
[16] = Metabolic stability in mouse liver microsome incubated upto 120 mins in presence of NADPH by HPLC analysis; assay type: ADME; settings: microsomes, 2 h
[17] = Stability in mouse plasma incubated upto 24 hrs by HPLC analysis; assay type: ADME, cell-free
MOLM-13 [18] = assay: Antitumor activity against human MOLM-13 cells xenografted BALB/c mouse assessed as reduction in tumor volume at 10 mg/kg, IG qd administered 5 days a week and measured on day 9; assay type: functional, organism-based; settings: time 9.0 day
MOLM-13 [19] = assay: Antitumor activity against human MOLM-13 cells xenografted BALB/c mouse assessed as tumor growth inhibition at 10 mg/kg, IG qd administered 5 days a week and measured on day 9; assay type: functional; settings: MOLM-13, po, 216 h, time 9 day, read-out: TGI
[20] = Toxicity in BALB/c mouse xenografted with human MOLM-13 cells assessed as body weight loss at 10 mg/kg, IG qd administered 5 days a week and measured on day 9; assay type: organism-based; settings: in vivo, po, 216 h, time 9 day
[21] = Toxicity in BALB/c mouse xenografted with human MOLM-13 cells assessed as lung damage at 10 mg/kg, IG qd administered 5 days a week and measured on day 9 by H and E staining based analysis; assay type: organism-based; settings: in vivo, po, 216 h, time 9 day
[22] = Toxicity in BALB/c mouse xenografted with human MOLM-13 cells assessed as kidney damage at 10 mg/kg, IG qd administered 5 days a week and measured on day 9 by H and E staining based analysis; assay type: organism-based; settings: in vivo, po, 216 h, time 9 day

CCc1nc(C(N)=O)c(Nc2ccc(N3CCN(CCCCCCC(=O)NO)CC3)c(OC)c2)nc1NC1CCOCC1
IC50 (Histone deacetylase): 330 nM
pIC50 [1]: 9.22
pIC50 (MOLM-13 [2]): 8.00
pIC50 (KG-1): 5.84
pIC50 (THP-1): 5.81
pIC50 (K562): 5.97

CCc1nc(C(N)=O)c(Nc2ccc(N3CCN(CCCCCCCC(=O)NO)CC3)c(OC)c2)nc1NC1CCOCC1
pIC50 [1]: 9.22
pIC50 (MOLM-13 [2]): 8.10
pIC50 (KG-1): 6.18
pIC50 (THP-1): 6.19
pIC50 (K562): 6.31
IC50 at 48 h [3]: 3050 nM
inhibition [4]: Active
inhibition (MOLM-13 [5]): Active
inhibition (MOLM-13 [6]): Active
inhibition (MOLM-13 [7]): Active
viability at 0.1 µM (MOLM-13 [8]): 39.4%
Activity (MOLM-13 [9]): 43.5%
Activity (MOLM-13 [10]): 16.6%
Activity (MOLM-13 [11]): 0.54%
Activity (MOLM-13 [12]): Dose-Dependent Effect
Activity (Mitochondrial membrane): Dose-Dependent Effect
Activity (MOLM-13 [13]): 75.85%
Activity (MOLM-13 [14]): 4.12%
Activity (MOLM-13 [15]): 20.04%
Stability [16]: Stable
Stability [17]: Stable
Activity (MOLM-13 [18]): Active
inhibition in vivo at 10 mg/kg (MOLM-13 [19]): 65.3%
Activity [20]: Non-Toxic
Activity [21]: Non-Toxic
Activity [22]: Non-Toxic
